A short description of data set [1]: Total antioxidant capacity of the compound at 25 uM relative to control. In kind it is physicochemical.
Data set [2] is described as follows: Total antioxidant capacity of the compound at 50 uM relative to control. The class given is physicochemical.
Data set [3] in a line: Total antioxidant capacity of the compound at 100 uM relative to control. In kind it is physicochemical.
In data set [4] the test system is Radical scavenging activity. Put plainly: Antioxidant activity assessed as DPPH free radical scavenging activity after 30 mins. In kind it is functional. A general note: Loss of DPPH colour is used to gauge radical scavenging.
Data set [5] concerns Liver. Put plainly: Antioxidant activity against Fe2+/ascorbic acid-induced lipid peroxidation in mouse liver homogenates assessed as total MDA level at 200 uM after 1.5 hrs. The class given is functional, tissue-based.
A short description of data set [6]: Total antioxidant capacity of the compound at 200 uM relative to control. The class given is physicochemical.
Data set [7] relates to Liver. Nature of the data set: Antioxidant activity against Fe2+/ascorbic acid-induced lipid peroxidation in mouse liver homogenates after 1.5 hrs. In kind it is functional, tissue-based.
In data set [8] the test system is HCT-116. Nature of the data set: Cytotoxicity against human HCT116 cells up to 200 uM by MTT assay. In kind it is cell-based. A general note: Tetrazolium dyes change colour on reduction, which living cells bring about.
Data set [9] deals with SW480. Put plainly: Cytotoxicity against human SW480 cells up to 200 uM by MTT assay. In kind it is cell-based.

Activity calls are given as the source filed them. The calls are words filed in the database; no cut-off is given here. Some results are limits rather than exact numbers.

One may read the IC50 as the concentration that inhibits the measured activity by half. On to `CC(C)C(c1c(O)cc(/C=C/c2ccc(O)c(O)c2)oc1=O)c1c(O)cc(/C=C/c2ccc(O)c(O)c2)oc1=O`, for which the TAC worked out at 2.1 U in [1], 2.88 U in data set [2], 4.8 U in data set [3] and 5.39 U in data set [6]. In addition, the IC50 in data set [4] and in data set [7] was above 200 µM each time. Moreover, the outcome in [5] was Active. Also, the Activity entry in data set [8] and in data set [9] was “Non-toxic” in each case.

Turning to `O=C(O)CCC(c1c(O)cc(/C=C/c2ccc(O)c(O)c2)oc1=O)c1c(O)cc(/C=C/c2ccc(O)c(O)c2)oc1=O`, the TAC in data set [1] is 6.82 U; in data set [2], 8.41 U; in data set [3], 9.74 U; in data set [6] it was 10.74 U. The IC50 in [4] is 88.7 µM. Moreover, the Activity result in data set [8] and in data set [9] was “Non-toxic” throughout.

For the compound `CC(c1c(O)cc(/C=C/c2ccc(O)c(O)c2)oc1=O)c1c(O)cc(/C=C/c2ccc(O)c(O)c2)oc1=O` [PINILLIDINE], the TAC turned out to be 2.02 U in [1], 2.67 U in data set [2], 3.46 U in data set [3] and 5.16 U in [6]. The IC50 in [4] and in data set [7] was above 200 µM throughout. Also, the result in data set [5] was Active. Also, the Activity result in data set [8] and in [9] was “Non-toxic” throughout.

Take `CC(C)CC(c1c(O)cc(/C=C/c2ccc(O)c(O)c2)oc1=O)c1c(O)cc(/C=C/c2ccc(O)c(O)c2)oc1=O`: the TAC in data set [1] came to 3.61 U; in [2], 5.28 U; in data set [3] it was 7.6 U; in [6] it was 10.81 U. Also, the figures for the IC50 in data set [4] and in data set [7] were 95.9 µM and above 200 µM, respectively. Moreover, the outcome in data set [5] was Active. The Activity result in data set [8] and in data set [9] was “Non-toxic” each time.

With `COC(=O)CCC(c1c(O)cc(/C=C/c2ccc(O)c(O)c2)oc1=O)c1c(O)cc(/C=C/c2ccc(O)c(O)c2)oc1=O`, the TAC in [1] turned out to be 3 U; in [2], 3.4 U; in data set [3], 6.5 U; in [6] it was 11.06 U. In data set [4], the IC50 amounted to 95.3 µM. Also, the Activity result in [8] and in data set [9] was “Non-toxic” throughout.

In the case of `O=C1O[C@H]([C@@H](O)CO)C(O)=C1O` [ASCORBIC ACID], the TAC is 17.33 U in data set [1], 17.42 U in data set [2], 18.97 U in [3] and 21.68 U in data set [6].

For the compound `O=c1cc(O)cc(/C=C/c2ccc(O)c(O)c2)o1` [HISPIDIN], the TAC in data set [1] was determined as 5.83 U; in data set [2] it was 9.27 U; in [3] it was 10.03 U; in data set [6] it was 10.25 U. The IC50 in data set [4] was 58.8 µM; in data set [7], above 200 µM. Besides, the outcome in data set [5] was Active. Further, the Activity entry in data set [8] and in data set [9] was “Non-toxic” throughout.

`O=C1CC(c2c(O)cc(/C=C/c3ccc(O)c(O)c3)oc2=O)CN1` (stereo unspecified): the TAC is recorded as 2.41 U in data set [1], 2.78 U in data set [2], 4.24 U in data set [3] and 6.91 U in [6]. For the same compound, the half-maximal inhibitory concentration (IC50) in data set [4] is above 200 µM. Besides, the Activity entry in data set [8] and in data set [9] was “Non-toxic” in each case.

The values above are taken from ChEMBL document CHEMBL2406917, “Phaeolschidins A-E, five hispidin derivatives with antioxidant activity from the fruiting body of Phaeolus schweinitzii collected in the Tibetan Plateau” (J Nat Prod, 2013).
